From patent US20110028717A1, “AZAINDOLE DERIVATIVE HAVING PGD2 RECEPTOR ANTAGONISTIC ACTIVITY” (priority 2005, published 2011)

Experiments:
DP receptor [1] = target: T1, DP receptor (Homo sapiens, UniProt Q13258); assay: cAMP assay with washed platelets (PGD2-stimulated cAMP, HTRF); type: cell-based; details: 100 nM PGD2, cAMP by HTRF, read-out: IC50 (50% DP-inhibitory concentration in the cAMP assay)
T1 construct: endogenous in cells; host or cells: washed platelets from peripheral blood of a healthy volunteer
T1 sequence (Q13258 1-359): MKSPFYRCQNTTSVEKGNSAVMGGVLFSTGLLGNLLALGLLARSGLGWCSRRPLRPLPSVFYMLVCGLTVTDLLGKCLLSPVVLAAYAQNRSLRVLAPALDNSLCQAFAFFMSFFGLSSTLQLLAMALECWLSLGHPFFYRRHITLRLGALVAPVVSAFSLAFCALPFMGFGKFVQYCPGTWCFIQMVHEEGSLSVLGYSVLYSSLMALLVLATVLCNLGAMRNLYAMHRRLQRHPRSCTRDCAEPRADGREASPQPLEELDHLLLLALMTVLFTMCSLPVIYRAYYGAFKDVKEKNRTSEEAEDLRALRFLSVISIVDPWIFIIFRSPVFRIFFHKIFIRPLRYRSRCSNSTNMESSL
Procedure: 30 ml of peripheral blood was collected from a healthy volunteer using a syringe containing one ninth amount of 3.8% sodium citrate for diagnosis. After being centrifuged at 180 g for 10 minutes at room temperature, a supernatant was collected and used as Platelet Rich Plasma (PRP). The resulting PRP was washed with wash buffer and centrifuged three times (Washed Platelet: WP) and platelets were counted by a microcell counter. WP was added to a plate in amount of 1.5×10^8/assay and the plate was treated with 3-isobutyl-1-methylxanthin (IBMX; 0.5 mM) for 5 minutes. A reaction was initiated by adding 100 nM of PGD2 5 min after an addition of a test compound. The reaction was terminated with an addition of 1N hydrochloric acid after 2 minutes and the cells were destructed using 12% triton X-100. An amount of cAMP in the supernatant was assayed by Homogeneous […] (HTRF)

DP receptor [2] = target: T1, DP receptor; assay: Receptor binding assay, [3H]-PGD2, platelet membrane; details: [3H]-PGD2, human platelet membrane
Procedure: A prepared WP was homogenated and a membrane fraction was collected with high-speed centrifugation. A compound of the present invention or a reference compound A (No. IC-73 in WO 2003/097598) was added to the plate and [^3H]-PGD2 was also added. A platelet membrane, a protein concentration is 2 mg/mL, was added and mixed in the plate, and placed on ice for 2 hours. The reaction solution was transferred to a low protein-adsorptive filter and washed with a wash solution eight times using a cell harvester. After the final washing, water was removed sufficiently, and micoscinti was added. DP inhibitory activity was investigated by measuring [^3H] by using Micro Beta.

Brown Norway (BN) Rats = assay: OVA asthma model of rat (hyperresponsive airway, infiltration of inflammatory cells, mucus secretion); type: in vivo; details: 10 mg/kg p.o. once a day for three days; for inhibition rate (%) mucus-secretion: mucin in airway lavage fluid vs control group; for inhibition rate (%) infiltration of inflammatory cells: total cell number in bronchoalveolar washings vs control group; for inhibition rate (%) increased hyperresponsive airway: vs control group, AUC of acetylcholine response
Procedure: Brown Norway (BN) Rats were sensitized by i.p. administration of 0.1 mg/mL of ovalbumin (OVA) and 1 mg of aluminum hydroxide gel. A solution of 1% OVA was aerosolized by ultrasonic nebulizer (NE-U 17) and the rats were subjected to inhalation exposure of the aerosol for 30 minutes in an exposing chamber 12, 19, 26 and 33 days after the sensitization. One hour before the 4th exposure of the antigen, compounds of the present invention were administered in a dose of 10 mg/kg p.o. once a day for three days consecutively. In a control group, 0.5% of methyl cellulose was administered in place of the compound of the present invention.
Under pentobarbital anesthesia (80 mg/kg, i.p.), acetylcholine (3.9, 7.8, 15.6, 31.3, 62.5, 125, 250 and 500 μg/kg) was injected to jugular vein of the rats successively from a lower dose at intervals of 5 minutes three days after the fourth exposure to the antigen, and immediate contractile reaction of airways (an increase of insufflation pressure) was measured by a modified method of Konnzett & Rössler. Inhibition rate of increased hyperresponsive airway against the control group was calculated based on area under curve (AUC) obtained from concentration-response curve of acetylcholine.
After the measurement of increased hyperresponsive airway was completed, bronchoalveoli of the rats were washed with 5 mL of saline three times. Total cell number in the washings was counted by a hemacytometer under light microscope, and inhibition rates of infiltration of inflammatory cells against the control group were calculated. Further, muchin in the airway lavage fluid was measured by ELIZA method using jacalin, a muchin-binding lectin, and the inhibition rates of mucus-secretion against the control group were calculated.

IC50 (DP receptor [1])	Ki (DP receptor [2])	Structure (SMILES)	inhibition rate (%) mucus-secretion (Brown Norway (BN) Rats)	inhibition rate (%) infiltration of inflammatory cells (Brown Norway (BN) Rats)	inhibition rate (%) increased hyperresponsive airway (Brown Norway (BN) Rats)
1700 pM		CC(C)Oc1ccc(S(=O)(=O)N2CCC(c3cn(CC(=O)O)c4nc(-c5ccco5)ccc34)CC2)cc1 [Compound I-26]			
510 pM	850 pM	CC(C)Oc1ccc(S(=O)(=O)N2CCC(c3cn(CC(=O)O)c4nc(Br)ccc34)CC2)cc1 [Compound I-13]	44%	62%	58%
2200 pM		CC(C)Oc1ccc(S(=O)(=O)N2CCC(c3cn(CC(=O)O)c4nc(-c5ccccn5)ccc34)CC2)cc1 [Compound I-19]			
640 pM		CC(C)Oc1ccc(S(=O)(=O)N2CCC(c3cn(CC(=O)O)c4nc(-c5ccccc5)ccc34)CC2)cc1 [Compound I-16]			
580 pM	1000 pM	CC(C)Oc1ccc(S(=O)(=O)N2CCC(c3cn(CC(=O)O)c4ncccc34)CC2)cc1 [Compound I-1]	68%	63%	55%
880 pM	250 pM	CC(C)Oc1ccc(S(=O)(=O)N2CCC(c3cn(CC(=O)O)c4nc(-c5ccc(F)cc5)ccc34)CC2)cc1 [Compound I-17]			
640 pM	480 pM	CC(C)Oc1ccc(S(=O)(=O)N2CCC(c3cn(CC(=O)O)c4nc(-c5nccs5)ccc34)CC2)cc1 [Compound I-20]			
930 pM	1000 pM	CC[C@@H](C)Oc1ccc(S(=O)(=O)N2CCC(c3cn(CC(=O)O)c4ncccc34)CC2)cc1 [Compound I-6]	77%	60%	69%
1100 pM		CC(C)Oc1ccc(S(=O)(=O)N2CCC(c3cn(CC(=O)O)c4nc(-c5ccoc5)ccc34)CC2)cc1 [Compound I-25]			
1700 pM		CC(C)Oc1ccc(S(=O)(=O)N2CCC(c3cn(CC(=O)O)c4nc(OCc5ccccc5)ccc34)CC2)cc1 [Compound I-31]			
330 pM	610 pM	COc1ccc2c(C3CCN(S(=O)(=O)c4ccc(OC(C)C)cc4)CC3)cn(CC(=O)O)c2n1 [Compound I-14]	88%	68%	84%
1500 pM		CCOc1ccc2c(C3CCN(S(=O)(=O)c4ccc(OC(C)C)cc4)CC3)cn(CC(=O)O)c2n1 [Compound I-29]			
1900 pM	510 pM	CC(C)Oc1ccc(S(=O)(=O)N2CCC(c3cn(CC(=O)O)c4nc(NC(=O)OC(C)(C)C)ccc34)CC2)cc1 [Compound I-21]			
